We go through 6 compounds from patent publication US8287893B2, “Bioactive agrichemical compositions and use thereof” (Sciessent LLC, priority 2007, dated 2012).

For experiment [1], the system named is Saccharomycetes Cerevisiae (Fleishmann's Bakers yeast). The experiment in a line: Yeast growth suppression, turbidity of yeast suspension in growth medium. Further details: key to turbidity T0 / turbidity T18 / change in turbidity T48 − T0 / turbidity T48 / turbidity T72 / turbidity T96 / change in turbidity T18 − T0 / change in turbidity T72 − T0 / change in turbidity T96 − T0: turbidity in NTU. The format is cell-based. As for the experimental part: Saccharomycetes Cerevisiae was selected as a test organism as it is generally accepted in the industry as an indicator or surrogate organism for a wide variety of fungi. In each of these experiments, the same general procedure was followed unless otherwise indicated.
Experimental Detail: A growth medium was prepared by adding 10 grams of nutrient medium (Difco Sabouraud dextrose broth from BD of Franklin Lakes, N.J., USA) to 300 ml of distilled water. Fleishmann's Bakers yeast was then added to the growth medium while mixing using a magnetic stirrer until a uniform dispersion was obtained having an initial turbidity of between about 50 and 100 NTU as measured using a HF Instruments DRT 100B Turbidity Meter. Once the appropriate dispersion was obtained, 20 ml aliquots were then dispensed, with continued mixing, into 40 ml borosilicate glass vials with Teflon lined caps (VWR International Cat. No. 15900-004). The system/component to be evaluated was then added to the vial and intimately shaken to ensure a good, substantially homogeneous mixture. The turbidity of each mixture was then determined and the vial transferred to an incubator at 30° C. Each vial was periodically removed from the incubator and the mixture in the vials assessed for turbidity: the specific timing for such evaluation was as set forth in the discussion of the experiments and the accompanying tables.
In each experiment, unless otherwise specified, a 2 ml aqueous solution containing the specified bioactive system or component thereof was added to the 20 ml yeast suspension and mixed thoroughly. Typically the surfactants were added separately in a concentrated solution in water; however, the volume added was negligible: a fraction of an ml. For convenience in understanding efficacy levels, the amounts or concentrations of the various components presented in each of the following tables and experiments are of the diluted material in the test vial: not of the concentrate added to the test vial. Furthermore, the concentrations presented are on the basis of a 20 ml total volume, not the actual 22+ ml volume. Multiplying each of the listed concentrations by 0.9 (or 0.95 with those compositions using 1 ml aqueous solutions) will provide a more accurate assessment of the concentrations of the various components evaluated, i.e., a 5 ppm silver concentration is actually closer to 4.5 ppm. Finally, for those vials to which no bioactive system or component thereof was added (the controls) or which only contained the surfactants, 2 ml of additional growth medium was added to ensure relative equivalent dilutions of the yeast.
In the tables below, the results are presented as the actual turbidity readings (NTU) with a sub-table presenting the change or delta in NTU values. Given the nature of the system, changes in turbidity are reflective of the relative performance/bioefficacy of the bioactive systems and their components.

The test system of experiment [2] is E. amylovora 153N. The experiment in a line: Fire blight on Snow Drift crabapple trees (Example 287). The experiment is classed as in vivo. Particulars: for cankers, result in words / shoot blight incidence, result in words: day 63. As for the experimental part: A study of the bioefficacy of the various agrichemical compositions, including bioactive acid solutions and blends thereof with an antibiotic agrichemical, were evaluated to assess their bioefficacy against fire blight on crabapples. The study was conducted on 5 year old Snow Drift crabapple trees, with each of the compositions being applied to ten trees in two-subplots of five trees, four different times: at 100% bloom-day 1, a second application was made on day 4, a third on day 11 and a final treatment on day 19. The trees were inoculated with E. amylovora […] at a concentration of 4×10^6 cells per milliliter on day 1, following drying of the treatment, with the inoculation being repeated on day 13. Evaluation for fire blight was completed on 100 blossoms for each of the subplots on day 12, day 19 and day 27. Additionally, the incidence of shoot infection and the length of […] evaluated on day 63. The test compositions were prepared by forming solutions of the bioactive agents. Two different dilutions of the MI2 bioactive were evaluated; the first employing 94.46 ml/gallon (25 ml/l) of water (5 ppm of each metal) and the second 188.9 ml/gallon (50 ml/l) of water (10 ppm of each metal). […] Finally, copper hydroxide was diluted at a rate of 1 lb/gallon (119.8 g/l). Each of the compositions and blends were spray applied at a rate of 50 gallons (189.3 l) pre acre. The results are presented as the mean of the counts.

The mark [3] stands for this setting: Table 12, surfactant ~0.05 wt % neat, Metal ppm 0.
The mark [4] stands for this setting: Table 12, surfactants ~0.05 wt %, Metal ppm 2.5 each of Cu, Ag, Zn, ~0.2% citric acid.
Setting [5] is: Table 12, surfactants ~0.05 wt %, Metal ppm 5 each of Cu, Ag, Zn, ~0.4% citric acid.

Read-outs that look alike come from different tables or passages of the source.

As to `O=C([O-])CC(O)(CC(=O)[O-])C(=O)[O-].[Ag+].[Ag+].[Ag+]` [Example 1, silver citrate], the “Change in Turbidity from T0 (delta NTU) Time 1 Hr” value (“Change … (delta NTU) Time 1 Hr” below) in experiment [1] (Table 1A, 1 hour) is given as 15.1 NTU. Also, in experiment [1] (Table 1A, 18 hours), the “Change in Turbidity from T0 (delta NTU) T 18 hours” value (“Change … (delta NTU) T 18 hours” below) turned out to be 845.5 NTU. For the same compound, the “Change in Turbidity from T0 (delta NTU) T 24 hours” value (“Change … (delta NTU) T 24 hours” for short) in experiment [1] (Table 1A, 24 hours) worked out at 887.5 NTU. Further, the “Change in Turbidity from T0 (delta NTU) T 96 Hours” value (from here on “Change … (delta NTU) T 96 Hours”) in experiment [1] (Table 1A, 96 hours) was found to be 950.5 NTU.
Regarding `O=C([O-])CC(O)(CC(=O)[O-])C(=O)[O-].O=C([O-])CC(O)(CC(=O)[O-])C(=O)[O-].[Zn+2].[Zn+2].[Zn+2]` [Example 7, zinc citrate], in experiment [1], the “Change … (delta NTU) T 96 Hours” value came out at 1007.2 NTU, the “Change … (delta NTU) T 18 hours” value was 948.2 NTU, the “Change … (delta NTU) T 24 hours” value amounted to 949.2 NTU and the “Change … (delta NTU) Time 1 Hr” value worked out at 20.7 NTU.
Turning to copper citrate [Example 13], in experiment [1], the “Change … (delta NTU) T 96 Hours” value was 1054.4 NTU, the “Change … (delta NTU) T 18 hours” value is recorded as 894.4 NTU, the “Change … (delta NTU) T 24 hours” value was 975.4 NTU and the “Change … (delta NTU) Time 1 Hr” value is 22.4 NTU.
`CCCCCCCCCCCCOS(=O)(=O)[O-].[Na+]`: in experiment [1] (setting [3]), the “change in turbidity T48 − T0” value is recorded as 610, the “turbidity T0” value was 48 and the “turbidity T18” value is on record as 495. Also, in experiment [1] (setting [4]), the “change in turbidity T18 − T0” value came out at 2, the “change in turbidity T48 − T0” value stood at 0, the “change in turbidity T72 − T0” value was 0 and the “change in turbidity T96 − T0” value was −1. In experiment [1] (setting [4]), the “turbidity T0” value is listed as 88, the “turbidity T18” value turned out to be 90, the “turbidity T48” value came to 88 and the “turbidity T72” value amounted to 88. The “turbidity T96” value in experiment [1] (setting [4]) turned out to be 87. Besides, in experiment [1] (setting [5]), the “change in turbidity T18 − T0” value turned out to be 13, the “change in turbidity T48 − T0” value is on record as 2, the “change in turbidity T72 − T0” value is given as 7 and the “change in turbidity T96 − T0” value is listed as 1.
As for `[H]/N=C(/N)N[C@H]1[C@H](O)[C@@H](O)[C@H](O[C@@H]2O[C@@H](C)[C@](O)(C=O)[C@H]2O[C@@H]2O[C@@H](CO)[C@H](O)[C@@H](O)[C@@H]2NC)[C@@H](N/C(N)=N\[H])[C@@H]1O` [streptomycin], in experiment [2], the “cankers, result in words” value is “appeared to prevent canker” and the “shoot blight incidence, result in words” value is reported as “greatly reduced”.
For the compound `[Cu+2].[OH-].[OH-]` [copper hydroxide], the “Shoot Incidence” value in experiment [2] (Day 63, rate 5 lbs/a (2.27 kg/a), mean of the counts) stood at 1.0. Further, in experiment [2], the “cankers, result in words” value is listed as “appeared to prevent canker” and the “shoot blight incidence, result in words” value was “greatly reduced”.
